Laboratory results taken from patent publication US20150157021A1, “NEW ANTIFUNGAL COMPOSITIONS” (DSM IP ASSETS B.V., priority 2012, published 2015).

Legend:
Botrytis cinerea [1] = experiment: Treatment of wounded strawberries inoculated with Botrytis cinerea (Examples 5, 6); format: in vivo; conditions: for Observed antifungal activity O (%): strawberries, 20° C.
Experimental: Twelve fresh, organic strawberries were used per treatment. Each strawberry was wounded with a 0.5 mm long cut and each wound was inoculated with 10 μl of a Botrytis cinerea suspension containing 1×10^5 of spores/ml. After a 3-hour incubation period at 20° C., each strawberry was dipped individually for 1 minute in a freshly prepared aqueous antifungal composition comprising either 500 ppm natamycin (DSM Food Specialties, Delft, The Netherlands), 500 ppm fenhexamid or both. Each antifungal composition also comprised 3.2% (w/w) beeswax, 0.8% (w/w) glycerol, 0.7% (w/w) polyoxyethylene sorbitan monostearate (Tween 60), 0.1% (w/w) polyoxyethylene sorbitan monooleate (Tween 80), 0.05% (w/w) methylhydroxyethyl-cellulose (MHEC), 0.03% (w/w) anti-foaming agent, 0.02% (w/w) xanthan gum, 0.02% (w/w) citric acid, 0.01% (w/w) lactic acid and 0.01% potassium sorbate. A composition without natamycin or fenhexamid was used as control. […] The treated strawberries were incubated in a closed box in the dark at 20° C. for 11 days.
The expected antifungal activity (E in %) of the combined antifungal composition comprising both active ingredients was calculated according to the Colby equation (Colby, 1967): […]
wherein X and Y are the observed antifungal activities (in %) of the individual active ingredients X and Y, respectively.
The experiment was conducted as described in Example 5, except for the fact that each wounded and inoculated strawberry was dipped individually for 1 minute in a freshly prepared aqueous antifungal composition comprising either 250 ppm natamycin (DSM Food Specialties, Delft, The Netherlands), 250 ppm fenhexamid or both. The treated strawberries were incubated in a closed box in the dark at 20° C. for 10 days. During incubation, the treated strawberries were assessed on mould growth according to the two methods described in Example 5.

Botrytis cinerea [2] = experiment: Treatment of wounded sweet peppers inoculated with Botrytis cinerea (Examples 9, 10); format: in vivo; conditions: 20° C., 400 ppm natamycin
Experimental: Ten fresh, organic sweet peppers were used per treatment. Each sweet pepper was soaked in a 180 ppm hypochlorite solution for 10 minutes, then rinsed thoroughly with fresh tap water and dried. The peel of each disinfected sweet pepper was wounded once using a cork borer according to the method described by de Lapeyre de Bellaire and Dubois (1987). Subsequently, each wound was inoculated with 10 μl of a Botrytis cinerea suspension containing 1×10^5 of spores/ml. After incubation for 3 hours at 20° C., each wound and the skin area of 0.5 cm around the wound was treated with in total 75 μl of a freshly prepared aqueous antifungal composition comprising either 400 ppm natamycin (DSM Food Specialties, Delft, The Netherlands), 600 ppm fenhexamid or both. Each antifungal composition also comprised 3.2% (w/w) beeswax, 0.8% (w/w) glycerol, 0.7% (w/w) polyoxyethylene sorbitan monostearate (Tween 60), 0.2% (w/w) polyoxyethylene sorbitan monooleate (Tween 80), 0.05% (w/w) methylhydroxyethyl-cellulose (MHEC), 0.03% (w/w) anti-foaming agent, 0.02% (w/w) xanthan gum, 0.02% (w/w) citric acid, 0.01% (w/w) lactic acid and 0.01% potassium sorbate. A composition without natamycin or fenhexamid was used as control.
The treated sweet peppers were incubated in a closed box in the dark at 20° C. and assessed on mould growth during a 26-day incubation period. The antifungal activity (in %) of the individual and combined active ingredients was determined by calculating the reduction in mould growth observed on the sweet peppers treated with the antifungal composition in comparison to the mould growth on the sweet peppers treated with the control composition according to the Colby method (Colby, 1967) described in Example 5.
The experiment was conducted as described in Example 9, except for the fact that each wounded and inoculated sweet pepper was treated with 75 μl of a freshly prepared aqueous antifungal composition comprising either 400 ppm natamycin (DSM Food Specialties, Delft, The Netherlands), 800 ppm carboxin or both. The treated sweet peppers were incubated in a closed box in the dark at 20° C. and assessed on mould growth during a 26-day incubation period. During incubation, the treated sweet peppers were assessed on mould growth according to the method described in Example 9.

C[C@@H]1C/C=C/C=C/C=C/C=C/[C@H](O[C@@H]2O[C@H](C)[C@@H](O)[C@H](N)[C@@H]2O)C[C@@H]2O[C@](O)(C[C@@H](O)C[C@H]3O[C@@H]3/C=C/C(=O)O1)C[C@H](O)[C@H]2C(=O)O [Natamycin, natamycin]
Number of moulded strawberries/total number of 12 strawberries (Botrytis cinerea [1]; Day 5, 20° C., 250 ppm natamycin, 250 ppm fenhexamid or both): 9/12
Number of moulded strawberries/total number of 12 strawberries (Botrytis cinerea [1]; Day 5, 20° C., 250 ppm natamycin, 250 ppm fenhexamid or both, listed as natamycin): 9
Number of moulded strawberries/total number of 12 strawberries (Botrytis cinerea [1]; Day 6-7, 20° C., 250 ppm natamycin, 250 ppm fenhexamid or both): 11/12
Number of moulded strawberries/total number of 12 strawberries (Botrytis cinerea [1]; Day 6-7, 20° C., 250 ppm natamycin, 250 ppm fenhexamid or both, listed as natamycin): 11
Number of moulded strawberries/total number of 12 strawberries (Botrytis cinerea [1]; Day 7-8, 20° C., 500 ppm natamycin, 500 ppm fenhexamid or both): 12/12
Number of moulded strawberries/total number of 12 strawberries (Botrytis cinerea [1]; Day 8, 20° C., 250 ppm natamycin, 250 ppm fenhexamid or both): 11/12
Number of moulded strawberries/total number of 12 strawberries (Botrytis cinerea [1]; Day 8, 20° C., 250 ppm natamycin, 250 ppm fenhexamid or both, listed as natamycin): 11
Number of moulded strawberries/total number of 12 strawberries (Botrytis cinerea [1]; Day 9, 20° C., 500 ppm natamycin, 500 ppm fenhexamid or both): 12/12
Number of moulded strawberries of 12 (Botrytis cinerea [1]; after 6 through 9 days of incubation, 500 ppm natamycin alone or 500 ppm fenhexamid alone): 12
Observed antifungal activity O (%) (Botrytis cinerea [1]; 8 days, 250 ppm natamycin, 250 ppm fenhexamid or both): 18%
Observed antifungal activity O (%) (Botrytis cinerea [1]; 9 days, 250 ppm natamycin, 250 ppm fenhexamid or both): 13%
Observed antifungal activity O (%) (Botrytis cinerea [1]; 10 days, 250 ppm natamycin, 250 ppm fenhexamid or both): 4.8%
Observed antifungal activity O (%) (Botrytis cinerea [1]; 10 days, 500 ppm natamycin, 500 ppm fenhexamid or both): 2.4%
Observed antifungal activity O (%) (Botrytis cinerea [1]; 11 days, 500 ppm natamycin, 500 ppm fenhexamid or both): 2.4%
Observed antifungal activity O (%) (Botrytis cinerea [2]; 13-17 days, 600 ppm fenhexamid or both): 86%
Observed antifungal activity O (%) (Botrytis cinerea [2]; 17-19 days, 800 ppm carboxin or both): 86%
Observed antifungal activity O (%) (Botrytis cinerea [2]; 18-22 days, 600 ppm fenhexamid or both): 86%
Observed antifungal activity O (%) (Botrytis cinerea [2]; 20-21 days, 800 ppm carboxin or both): 87%
Observed antifungal activity O (%) (Botrytis cinerea [2]; 6 days, 600 ppm fenhexamid or both): 95%
Observed antifungal activity O (%) (Botrytis cinerea [2]; 8 days, 600 ppm fenhexamid or both): 94%
Observed antifungal activity O (%) (Botrytis cinerea [2]; 10 days, 600 ppm fenhexamid or both): 89%
Observed antifungal activity O (%) (Botrytis cinerea [2]; 11 days, 600 ppm fenhexamid or both): 87%
Observed antifungal activity O (%) (Botrytis cinerea [2]; 22 days, 800 ppm carboxin or both): 85%
Observed antifungal activity O (%) (Botrytis cinerea [2]; 24 days, 600 ppm fenhexamid or both): 83%
Observed antifungal activity O (%) (Botrytis cinerea [2]; 24 days, 800 ppm carboxin or both): 83%
Observed antifungal activity O (%) (Botrytis cinerea [2]; 25 days, 600 ppm fenhexamid or both): 82%
Observed antifungal activity O (%) (Botrytis cinerea [2]; 25 days, 800 ppm carboxin or both): 82%
Observed antifungal activity O (%) (Botrytis cinerea [2]; 26 days, 600 ppm fenhexamid or both): 79%
Observed antifungal activity O (%) (Botrytis cinerea [2]; 26 days, 800 ppm carboxin or both): 79%
